These are literature values, as cited in publication PMC7434893 (British Journal of Cancer, 2020).

For the data set, the target named is tankyrase 1/2. The note with it: relative to E7449; cited from earlier work.
Take `NC(=O)c1cccc2cn(-c3ccc([C@@H]4CCCNC4)cc3)nc12` [niraparib]: the “IC50 values for tankyrase inhibition, fold higher than E7449” value was 5–20 fold.

Take `O=C(c1cc(Cc2n[nH]c(=O)c3ccccc23)ccc1F)N1CCN(C(=O)C2CC2)CC1` [olaparib]: the “IC50 values for tankyrase inhibition, fold higher than E7449” value is 5–20 fold.

As for `C[C@]1(c2nc3c(C(N)=O)cccc3[nH]2)CCCN1` [veliparib], the “IC50 values for tankyrase inhibition, fold higher than E7449” value is recorded as 5–20 fold.
